# Laboratory results from PubChem BioAssay (NCI).
#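 Assay format: 96-well plates, 48-hour exposure. GI50: concentration for 50% inhibition of growth. TGI: total growth inhibition.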
# What was measured:
# Experiment in all cases: growth of human tumour cells (NCI), 48 h
# MDA-MB-468 breast = tested on: MDA-MB-468 breast
# CAKI-1 renal = tested on: CAKI-1 renal
# SF-539 CNS = tested on: SF-539 CNS
# OVCAR-5 ovarian = tested on: OVCAR-5 ovarian
# HCT-15 colon = tested on: HCT-15 colon
# KM12 colon = tested on: KM12 colon
# SK-MEL-28 melanoma = tested on: SK-MEL-28 melanoma
# SF-268 CNS = tested on: SF-268 CNS
# ACHN renal = tested on: ACHN renal
# EKVX NSCLC = tested on: EKVX NSCLC
# SN12C renal = tested on: SN12C renal
# NCI-H522 lung = tested on: NCI-H522 lung
# CCRF-CEM leukemia = tested on: CCRF-CEM leukemia
# U251 CNS = tested on: U251 CNS
# RXF 393 renal = tested on: RXF 393 renal
# SK-OV-3 ovarian = tested on: SK-OV-3 ovarian
# NCI-H226 lung = tested on: NCI-H226 lung
# UACC-62 melanoma = tested on: UACC-62 melanoma
# 786-0 renal = tested on: 786-0 renal
# SF-295 CNS = tested on: SF-295 CNS
# HT29 colon = tested on: HT29 colon
# NCI-H460 lung = tested on: NCI-H460 lung
# MOLT-4 leukemia = tested on: MOLT-4 leukemia
# HL-60(TB) leukemia = tested on: HL-60(TB) leukemia
# OVCAR-8 ovarian = tested on: OVCAR-8 ovarian
# MCF7 breast = tested on: MCF7 breast
# HCC-2998 colon = tested on: HCC-2998 colon
# PC-3 prostate = tested on: PC-3 prostate
# HS 578T breast = tested on: HS 578T breast
# K-562 leukemia = tested on: K-562 leukemia
# HOP-62 NSCLC = tested on: HOP-62 NSCLC
# HOP-92 NSCLC = tested on: HOP-92 NSCLC
# SNB-19 CNS = tested on: SNB-19 CNS
# RPMI-8226 leukemia = tested on: RPMI-8226 leukemia
# SR leukemia = tested on: SR leukemia
# A498 renal = tested on: A498 renal
# OVCAR-3 ovarian = tested on: OVCAR-3 ovarian
# UACC-257 melanoma = tested on: UACC-257 melanoma
# DU-145 prostate = tested on: DU-145 prostate
# MDA-MB-435 = tested on: MDA-MB-435
# T-47D breast = tested on: T-47D breast
# BT-549 breast = tested on: BT-549 breast
# SW-620 colon = tested on: SW-620 colon
# A549 NSCLC = tested on: A549 NSCLC
# SK-MEL-5 melanoma = tested on: SK-MEL-5 melanoma
# HCT-116 colon = tested on: HCT-116 colon
# OVCAR-4 ovarian = tested on: OVCAR-4 ovarian
# COLO 205 colon = tested on: COLO 205 colon
# IGROV1 ovarian = tested on: IGROV1 ovarian
# TK-10 renal = tested on: TK-10 renal
# M14 melanoma = tested on: M14 melanoma
# MALME-3M melanoma = tested on: MALME-3M melanoma
# NCI-H23 lung = tested on: NCI-H23 lung
# NCI/ADR-RES ovarian = tested on: NCI/ADR-RES ovarian
# LOX IMVI melanoma = tested on: LOX IMVI melanoma
smiles,measurement,setting,value
COc1ccc(-c2nn(-c3cccc(NC(=O)Nc4cc(C(F)(F)F)cc(C(F)(F)F)c4)c3)cc2-c2ccncc2)cc1Cl,GI50,MDA-MB-468 breast,641 nM
same,TGI,MDA-MB-468 breast,2.89 µM
Cc1nc(/N=C(\N)NC(=O)Nc2ccccc2Cl)sc1C,GI50,MDA-MB-468 breast,459 nM
same,TGI,MDA-MB-468 breast,4.67 µM
CN1CCN(Cc2ccc(NC(=O)c3ccc(C#N)c(C#Cc4cnc(N)c5ncccc45)c3)cc2C(F)(F)F)CC1,GI50,MDA-MB-468 breast,16900 nM
same,TGI,MDA-MB-468 breast,63.5 µM
Clc1ccc(-c2nn3ncccc3c2-c2ccnc(Nc3ccccc3)n2)cc1,GI50,MDA-MB-468 breast,1190 nM
same,TGI,MDA-MB-468 breast,9.63 µM
N#Cc1c(-c2ccccc2)cc(-c2ccccc2)n(CCCCC(=O)NO)c1=O,GI50,MDA-MB-468 breast,2510 nM
same,TGI,MDA-MB-468 breast,11.8 µM
COC(=O)[C@H](CC(C)C)NC(=O)NC(=O)NC(=O)CI,GI50,MDA-MB-468 breast,1970 nM
same,TGI,MDA-MB-468 breast,4.24 µM
COc1ccc(/C=C/c2cc(N3CCOCC3)c3cc(F)c(F)cc3n2)cc1OC,GI50,MDA-MB-468 breast,277 nM
same,TGI,MDA-MB-468 breast,1.64 µM
COc1ccc(-c2cc(/C=C3\C(=O)Nc4ccc(OC)cc43)[nH]n2)cc1,GI50,MDA-MB-468 breast,3710 nM
same,TGI,MDA-MB-468 breast,> 100 µM
CN(C)CCCNc1nccc(-c2c(-c3ccc(F)cc3)nn3cc(C(F)(F)F)ccc23)n1,GI50,MDA-MB-468 breast,3030 nM
same,TGI,MDA-MB-468 breast,7.35 µM
CCN(CC)CCCC(Nc1c2ccc(Cl)cc2nc2ccc(OC)cc12)c1ccc(F)cc1 (stereo not given),GI50,MDA-MB-468 breast,1650 nM
same,TGI,MDA-MB-468 breast,3.22 µM
Cc1ccc(Cl)cc1NC(=O)Nc1nc2ccc([N+](=O)[O-])cc2s1,GI50,CAKI-1 renal,3.18 µM
same,TGI,CAKI-1 renal,11.7 µM
same,GI50,SF-539 CNS,2600 nM
same,TGI,SF-539 CNS,6.9 µM
same,GI50,OVCAR-5 ovarian,3.33 µM
same,TGI,OVCAR-5 ovarian,11.9 µM
same,GI50,HCT-15 colon,2930 nM
same,TGI,HCT-15 colon,11.3 µM
same,GI50,KM12 colon,3.1 µM
same,TGI,KM12 colon,10.3 µM
same,GI50,SK-MEL-28 melanoma,3.42 µM
same,TGI,SK-MEL-28 melanoma,12.3 µM
same,GI50,SF-268 CNS,3.48 µM
same,TGI,SF-268 CNS,13.8 µM
same,GI50,ACHN renal,3.09 µM
same,TGI,ACHN renal,10.6 µM
same,GI50,EKVX NSCLC,2790 nM
same,TGI,EKVX NSCLC,10.1 µM
same,GI50,SN12C renal,2860 nM
same,TGI,SN12C renal,9.7 µM
same,GI50,NCI-H522 lung,2080 nM
same,TGI,NCI-H522 lung,7.17 µM
same,GI50,CCRF-CEM leukemia,3.02 µM
same,TGI,CCRF-CEM leukemia,12.5 µM
same,GI50,U251 CNS,3.06 µM
same,TGI,U251 CNS,10.7 µM
same,GI50,RXF 393 renal,2540 nM
same,TGI,RXF 393 renal,9.73 µM
same,GI50,SK-OV-3 ovarian,2190 nM
same,TGI,SK-OV-3 ovarian,6.52 µM
same,GI50,NCI-H226 lung,3.34 µM
same,TGI,NCI-H226 lung,12 µM
same,GI50,UACC-62 melanoma,2860 nM
same,TGI,UACC-62 melanoma,11.5 µM
same,GI50,786-0 renal,2730 nM
same,TGI,786-0 renal,10 µM
same,GI50,SF-295 CNS,2240 nM
same,TGI,SF-295 CNS,6.59 µM
same,GI50,HT29 colon,3.28 µM
same,TGI,HT29 colon,10.5 µM
same,GI50,NCI-H460 lung,2690 nM
same,TGI,NCI-H460 lung,10.2 µM
same,GI50,MOLT-4 leukemia,2300 nM
same,TGI,MOLT-4 leukemia,6.76 µM
same,GI50,HL-60(TB) leukemia,1880 nM
same,TGI,HL-60(TB) leukemia,4.7 µM
same,GI50,OVCAR-8 ovarian,3.07 µM
same,TGI,OVCAR-8 ovarian,11.7 µM
same,GI50,MCF7 breast,2710 nM
same,TGI,MCF7 breast,8.92 µM
same,GI50,HCC-2998 colon,3.43 µM
same,TGI,HCC-2998 colon,10.9 µM
same,GI50,PC-3 prostate,2970 nM
same,TGI,PC-3 prostate,11.3 µM
same,GI50,HS 578T breast,2750 nM
same,TGI,HS 578T breast,9.4 µM
same,GI50,K-562 leukemia,2500 nM
same,TGI,K-562 leukemia,10.2 µM
same,GI50,HOP-62 NSCLC,3.47 µM
same,TGI,HOP-62 NSCLC,11.2 µM
same,GI50,HOP-92 NSCLC,2290 nM
same,TGI,HOP-92 NSCLC,6.42 µM
same,GI50,SNB-19 CNS,3.43 µM
same,TGI,SNB-19 CNS,12.7 µM
same,GI50,RPMI-8226 leukemia,1850 nM
same,TGI,RPMI-8226 leukemia,5.58 µM
same,GI50,SR leukemia,2050 nM
same,TGI,SR leukemia,5.63 µM
same,GI50,A498 renal,2380 nM
same,TGI,A498 renal,6.29 µM
same,GI50,OVCAR-3 ovarian,3.25 µM
same,TGI,OVCAR-3 ovarian,11.6 µM
same,GI50,UACC-257 melanoma,2210 nM
same,TGI,UACC-257 melanoma,6.63 µM
same,GI50,DU-145 prostate,3.68 µM
same,TGI,DU-145 prostate,14.1 µM
same,GI50,MDA-MB-435,3.33 µM
same,TGI,MDA-MB-435,12.2 µM
same,GI50,T-47D breast,2310 nM
same,TGI,T-47D breast,7.87 µM
same,GI50,BT-549 breast,2350 nM
same,TGI,BT-549 breast,7.92 µM
same,GI50,SW-620 colon,3.06 µM
same,TGI,SW-620 colon,12.4 µM
same,GI50,MDA-MB-468 breast,2240 nM
same,TGI,MDA-MB-468 breast,6.6 µM
same,GI50,A549 NSCLC,2940 nM
same,TGI,A549 NSCLC,10.1 µM
same,GI50,SK-MEL-5 melanoma,1840 nM
same,TGI,SK-MEL-5 melanoma,3.6 µM
same,GI50,HCT-116 colon,2810 nM
same,TGI,HCT-116 colon,11 µM
same,GI50,OVCAR-4 ovarian,3.36 µM
same,TGI,OVCAR-4 ovarian,14.2 µM
same,GI50,COLO 205 colon,1850 nM
same,TGI,COLO 205 colon,3.58 µM
same,GI50,IGROV1 ovarian,3.92 µM
same,TGI,IGROV1 ovarian,14.3 µM
same,GI50,TK-10 renal,3.49 µM
same,TGI,TK-10 renal,13 µM
same,GI50,M14 melanoma,2870 nM
same,TGI,M14 melanoma,10.8 µM
same,GI50,MALME-3M melanoma,2170 nM
same,TGI,MALME-3M melanoma,6.39 µM
same,GI50,NCI-H23 lung,2270 nM
same,TGI,NCI-H23 lung,6.58 µM
same,GI50,NCI/ADR-RES ovarian,2540 nM
same,TGI,NCI/ADR-RES ovarian,9.04 µM
same,GI50,LOX IMVI melanoma,3.28 µM
same,TGI,LOX IMVI melanoma,12.1 µM
